Data published in patent publication US20070167464A1, “Fungicidal mixtures” (BASF Aktiengesellschaft, priority 2004, published 2007).

Test system: Pyrenophora teres
Assay: activity against net blotch of barley caused by Pyrenophora teres, 1-day-protective application
Assay type: in vivo, Pyrenophora [syn. Drechslera] teres on barley seedlings
Settings: individual active compound, evaluated after 6 days
Procedure: The active compounds, separately or jointly, were prepared as a stock solution comprising 0.25% by weight of active compound in acetone or DMSO. 1% by weight of the emulsifier Uniperol® EL (wetting agent having emulsifying and dispersant action based on ethoxylated alkylphenols) was added to this solution, and the mixture was diluted with water to the desired concentration.
Use example-activity against net blotch of barley caused by Pyrenophora teres, 1-day-protective application
Leaves of pot-grown barley seedlings were sprayed to run-off point with an aqueous suspension having the concentration of active compound stated below. 24 hours after the spray coating had dried on, the test plants were inoculated with an aqueous spore suspension of Pyrenophora[syn. Drechslera] teres, the causative agent of net blotch. The test plants were subsequently placed in a greenhouse at temperatures between 20 and 24° C. and at 95 to 100% relative atmospheric humidity. After 6 days, the extent of development of the disease was determined visually in % infection of the total leaf area.
The visually determined percentages of infected leaf areas were converted into efficacies in % of the untreated control:
The efficacy (E) is calculated as follows using Abbot's formula: E=(1α/β)·100 • α corresponds to the fungicidal infection of the treated plants in % and • β corresponds to the fungicidal infection of the untreated (control) plants in %
An efficacy of 0 means that the infection level of the treated plants corresponds to that of the untreated control plants; an efficacy of 100 means that the treated plants were not infected.
The expected efficacies of mixtures of active compounds were determined using Colby's formula (Colby, S. R. “Calculating synergistic and antagonistic responses of herbicide combinations”, Weeds, 15, 20-22, 1967) and compared with the observed efficacies.
Colby's Formula: E=x+y−x·y/100 • E expected efficacy, expressed in % of the untreated control, when using the mixture of the active compounds A and B at the concentrations a and b • x efficacy, expressed in % of the untreated control, when using the active compound A at the concentration a
y efficacy, expressed in % of the untreated control, when using the active compound B at the concentration b

| Structure (SMILES) | Efficacy in % of the untreated control (0.25 ppm in the spray liquor) [%] | Efficacy in % of the untreated control (1.25 ppm in the spray liquor) [%] | Efficacy in % of the untreated control (6.25 ppm in the spray liquor) [%] |
| --- | --- | --- | --- |
| CC(C)OC(=O)N[C@H](C(=O)N[C@H](C)c1nc2ccc(F)cc2s1)C(C)C [II.1, isopropyl {(S)-1-[(1 R)-1-(6-fluorobenzothiazol-2-yl)ethylcarbamoyl]-2-methylpropyl}carbamate] | 0 | 0 | 0 |
| CC1CCN(c2c(-c3c(F)cc(F)cc3F)c(Cl)nc3ncnn23)CC1 [I, 5-chloro-7-(4-methylpiperidin-1-yl)-6-(2,4,6-trifluorophenyl)-[1,2,4]triazolo[1,5-a]pyrimidine] | – | 53 | – |
